Where a name gives a salt, the structure may show the parent alone.

This is an account of results in the RepoRT retention time repository (doi:10.1016/j.foodchem.2021.129757).

A short description of one data set: RP, 150 × 2.1 mm, 2.6 µm, 40 °C, 0.35 mL/min, estimated dead time 0.94 min; A: water + 0.1% formic acid, pH 3; B: acetonitrile + 0.1% formic acid, pH 3; gradient (min/%B) 0/0 1/0 12.5/100 14/100 14.2/0 15/0. As to conditions: stereoisomer not certain.
With `Nc1c(O)cccc1C(=O)O` [3-Hydroxyanthranilic acid], the LC retention time is 3.21 min.

A further data set can be described thus: RP, 150 × 2.1 mm, 2.6 µm, 40 °C, 0.35 mL/min, estimated dead time 0.94 min; A: water + 0.1% formic acid, pH 3; B: acetonitrile + 0.1% formic acid, pH 3; gradient (min/%B) 0/0 1/5 7/45 8.5/80 10.5/80 11/5 12/5. To be noted: stereoisomer not certain.
Regarding `Nc1c(O)cccc1C(=O)O` [3-Hydroxyanthranilic acid], the LC retention time is 2.89 min.

With `O=c1c(O)c(-c2ccc(OC3OC(CO)C(O)C(O)C3O)c(O)c2)oc2cc(O)cc(O)c12` (stereo not given) [Quercetin 4-glucoside], the LC retention time is 6.25 min.

The nature of another data set: RP, Waters ACQUITY UPLC HSS T3, 100 × 2.1 mm, 50 °C; A: water + 0.1% formic acid, pH 3; B: 30% methanol + 70% acetonitrile + 0.1% formic acid, pH 3; gradient (min/%B) 0/5 1/8 2/15 3/40 4/70 4.5/100 5/100 6.4/100 6.6/5 6.8/5 7/5. To be noted: stereoisomer not certain.
With `Cc1ncc(CO)c(C=O)c1O` [Pyridoxal], the LC retention time was 2.61 min.

For the molecule `O=C(O)CCCCCCCC(=O)O` [Azelaic acid], the LC retention time came to 3.63 min.

As for `Cn1c(=O)c2c(ncn2C)n(C)c1=O` [Caffeine], the LC retention time is 3.1 min. The same measure, in the same setting: as for `CC(C)C1NC(=O)C2CCCN2C1=O` (stereo not given) [Cyclo(Pro-Val)], the figure is 3.1 min. Still for that read-out and setting: as for `Cn1c(=O)[nH]c2[nH]c(=O)[nH]c2c1=O` [1-Methyluric acid], the figure is 1.27 min; as for `Cn1c(=O)[nH]c2ncn(C)c2c1=O` [Paraxanthine], 2.56 min. Still for that read-out and setting: as for `O=C(O)C1(O)CC(O)C(O)C(O)C1` (stereo not given) [Quinic acid], the figure is 0.58 min; as for `O=C(O)Cc1c[nH]c2ccccc12` [3-Indoleacetic acid], 3.62 min; as for `O=C(O)Cc1c[nH]c2ccc(O)cc12` [5-Hydroxyindole-3-acetic acid], 2.86 min. `Cn1c(=O)c2[nH]c(=O)[nH]c2n(C)c1=O` [1,3-Dimethyluric acid]: the LC retention time stood at 2.01 min.

As to `O=C(O)CNC(=O)C=Cc1c[nH]c2ccccc12` [Indole-3-acryloylglycine], the LC retention time amounted to 3.56 min. Same read-out and setting: as for `O=C(O)C(O)Cc1c[nH]c2ccccc12` (stereo not given) [3-Indolelactic acid], the figure is 3.53 min; as for `O=C(O)CC(O)(CC(=O)O)C(=O)O` [Citric acid], 0.67 min; as for `Cc1ccc(OC2OC(C(=O)O)C(O)C(O)C2O)cc1` (stereo not given) [p-Cresol glucuronide], 3.44 min.

Regarding `Cc1ccccc1OS(=O)(=O)O` [o-Cresol sulfate], the LC retention time is 3.38 min. `c1coc(CNc2ncnc3nc[nH]c23)c1` [Kinetin]: the LC retention time was determined as 3.03 min. On the same count and under the same terms, for `O=C(O)C1OC(Oc2ccccc2O)C(O)C(O)C1O` (stereo not given) [Catechol-O-1-glucuronide] the value was 2.65 min; for `O=C(O)c1ccc[nH]1` [Pyrrole-2-carboxylic acid], 2.61 min; for `Cc1ccccc1C(=O)NCC(=O)O` [2-Methylhippuric acid], 3.4 min.

On to `CC(O)C1NC(=O)C2CCCN2C1=O` (stereo not given) [Cyclo(Pro-Thr)], for which the LC retention time worked out at 1.54 min. On the same count and under the same terms, for `O=C(OC1OC(C(=O)O)C(O)C(O)C1O)c1c[nH]c2ccccc12` (stereo not given) [3-Indole carboxylic acid glucuronide] the value was 3.36 min.

Another data set is described as follows: RP, Waters ACQUITY UPLC HSS T3, 100 × 2.1 mm, 1.8 µm, 30 °C, 0.4 mL/min, estimated dead time 0.55 min; A: water + 0.1% formic acid, pH 3; B: acetonitrile + 0.1% formic acid, pH 3; gradient (min/%B) 0/0 2/0 15/100 22/100 22.1/0 26/0. As to conditions: stereoisomer not certain.
For the molecule `Cn1c(=O)c2c(ncn2C)n(C)c1=O` [Caffeine], the LC retention time was 8.11 min. Same read-out and setting: for `CC(C)C1NC(=O)C2CCCN2C1=O` (stereo not given) [Cyclo(Pro-Val)] the value was 8.07 min; for `Cn1c(=O)[nH]c2ncn(C)c2c1=O` [Paraxanthine], 7.53 min; for `O=C(O)C1(O)CC(O)C(O)C(O)C1` (stereo not given) [Quinic acid], 1.05 min. `Cn1c(=O)c2[nH]c(=O)[nH]c2n(C)c1=O` [1,3-Dimethyluric acid]: the LC retention time is 7.03 min. On the same count and under the same terms, as for `COc1cc(CCC(=O)O)ccc1O` [Hydroferulic acid], the figure is 9.38 min.

The next data set can be described thus: RP, Agilent ZORBAX Eclipse XDB-C18, 100 × 2.1 mm, 1.8 µm, 50 °C, 0.4 mL/min, estimated dead time 0.55 min; A: water + 0.1% formic acid, pH 3; B: methanol + 0.1% formic acid, pH 3; gradient (min/%B) 0/2 10/100 14.5/100 14.51/2 16.5/2. To be noted: stereoisomer not certain.
As to `Cc1ncc(CO)c(C=O)c1O` [Pyridoxal], the LC retention time is 1.35 min. `O=C(O)CCCCCCCC(=O)O` [Azelaic acid]: the LC retention time is 5.74 min.

In the case of `Cn1c(=O)c2c(ncn2C)n(C)c1=O` [Caffeine], the LC retention time was 3.67 min. Still for that read-out and setting: for `Cn1c(=O)[nH]c2ncn(C)c2c1=O` [Paraxanthine] the value was 2.93 min; for `O=C(O)Cc1c[nH]c2ccccc12` [3-Indoleacetic acid], 5 min.

In the case of `O=C(O)CC(O)(CC(=O)O)C(=O)O` [Citric acid], the LC retention time was 1.09 min.

With `Nc1nc2ncc(CNc3ccc(C(=O)NC(CCC(=O)O)C(=O)O)cc3)nc2c(=O)[nH]1` (stereo not given) [Folic acid], the LC retention time is 3.46 min.

A short description of another data set: RP, Waters ACQUITY UPLC BEH C18, 100 × 2.1 mm, 1.7 µm, 65 °C, 0.4 mL/min, estimated dead time 0.55 min; A: water + 0.1% formic acid, pH 3; B: 80% acetonitrile + 20% acetone + 0.1% formic acid, pH 3; gradient (min/%B) 0/0 5/100 5.5/0 6/0. As to conditions: stereoisomer not certain.
Turning to `Cc1ncc(CO)c(C=O)c1O` [Pyridoxal], the LC retention time is 0.821 min.

Take `O=C(O)CCCCCCCC(=O)O` [Azelaic acid]: the LC retention time is 2.33 min.

For `Cn1c(=O)c2c(ncn2C)n(C)c1=O` [Caffeine], the LC retention time is 1.67 min. Turning to `CC(C)C1NC(=O)C2CCCN2C1=O` (stereo not given) [Cyclo(Pro-Val)], the LC retention time was 1.88 min. Still for that read-out and setting: as for `Cn1c(=O)[nH]c2[nH]c(=O)[nH]c2c1=O` [1-Methyluric acid], the figure is 1.29 min; as for `Cn1c(=O)[nH]c2ncn(C)c2c1=O` [Paraxanthine], 1.48 min. On the same count and under the same terms, as for `O=C(O)CCc1ccccc1` [3-phenylpropionic acid], the figure is 2.78 min; as for `O=C(O)Cc1c[nH]c2ccccc12` [3-Indoleacetic acid], 2.35 min; as for `O=C(O)Cc1c[nH]c2ccc(O)cc12` [5-Hydroxyindole-3-acetic acid], 1.61 min.

Regarding `Cn1c(=O)c2[nH]c(=O)[nH]c2n(C)c1=O` [1,3-Dimethyluric acid], the LC retention time is 1.45 min.

Take `O=C(O)CNC(=O)C=Cc1c[nH]c2ccccc12` [Indole-3-acryloylglycine]: the LC retention time is 2.13 min. For `O=C(O)C(O)Cc1c[nH]c2ccccc12` (stereo not given) [3-Indolelactic acid], the LC retention time is 2.14 min.

Consider `Cc1ccc(OC2OC(C(=O)O)C(O)C(O)C2O)cc1` (stereo not given) [p-Cresol glucuronide], for which the LC retention time is 2.01 min. The same measure, in the same setting: for `Cc1ccccc1OS(=O)(=O)O` [o-Cresol sulfate] the value was 1.93 min. Take `c1coc(CNc2ncnc3nc[nH]c23)c1` [Kinetin]: the LC retention time is 1.7 min. Still for that read-out and setting: for `O=C(O)c1ccc[nH]1` [Pyrrole-2-carboxylic acid] the value was 1.68 min; for `Cc1ccccc1C(=O)NCC(=O)O` [2-Methylhippuric acid], 1.96 min; for `CC(O)C1NC(=O)C2CCCN2C1=O` (stereo not given) [Cyclo(Pro-Thr)], 1.37 min.

Consider `O=C(OC1OC(C(=O)O)C(O)C(O)C1O)c1c[nH]c2ccccc12` (stereo not given) [3-Indole carboxylic acid glucuronide], for which the LC retention time was 1.89 min.

A short description of a further data set: RP, Agilent ZORBAX RRHD Eclipse Plus C18, 50 × 2.1 mm, 1.8 µm, 30 °C, 0.4 mL/min, estimated dead time 0.28 min; A: water + 0.1% formic acid, pH 3; B: acetonitrile + 0.1% formic acid, pH 3; gradient (min/%B) 0/1 5/10 8/25 9.1/99 10/99 12/1. To be noted: stereoisomer not certain.
For `O=C(O)C1OC(Oc2ccccc2O)C(O)C(O)C1O` (stereo not given) [Catechol-O-1-glucuronide], the LC retention time was 4.38 min.

The next data set in a line: RP, Agilent ZORBAX RRHD Eclipse Plus C18, 50 × 2.1 mm, 1.8 µm, 30 °C, 0.4 mL/min, estimated dead time 0.28 min; A: water + 0.1% formic acid, pH 3; B: acetonitrile + 0.1% formic acid, pH 3; gradient (min/%B) 0/1 5/10 8/25 9.1/99 10/99 12/99. As to conditions: stereoisomer not certain.
In the case of `O=C(O)C1OC(Oc2ccccc2O)C(O)C(O)C1O` (stereo not given) [Catechol-O-1-glucuronide], the LC retention time is 3.09 min.

The nature of another data set: RP, Phenomenex Synergi Hydro-RP, 250 × 2 mm, 4 µm, 25 °C, 0.2 mL/min, estimated dead time 2.5 min; A: water + 0.1% formic acid, pH 3; B: acetonitrile + 0.1% formic acid, pH 3; gradient (min/%B) 0/0.5 7/0.5 12/12.5 25/16.3 47/35 48/65 50/65 50.1/0.5. To be noted: stereoisomer not certain.
Consider `Cn1c(=O)c2c(ncn2C)n(C)c1=O` [Caffeine], for which the LC retention time was 21.3 min. `COc1ccccc1C=CC(=O)O` [2-Methoxycinnamic acid]: the LC retention time is 50 min. For `O=C(O)CC(=O)OCC1OC(Oc2c(-c3ccc(O)c(O)c3)oc3cc(O)cc(O)c3c2=O)C(O)C(O)C1O` (stereo not given) [Quercetin 3-O-malonylglucoside], the LC retention time was 37 min. `O=C(C=Cc1ccc(O)cc1)OCC1OC(Oc2c(-c3ccc(O)cc3)oc3cc(O)cc(O)c3c2=O)C(O)C(O)C1O` (stereo not given) [Tiliroside]: the LC retention time is 47 min.

Turning to `COc1cccc(C=CC(=O)O)c1` [3-methoxycinnamic acid], the LC retention time is 49.1 min.

Turning to `COc1cccc(C(=O)O)c1` [m-Anisic acid], the LC retention time was 40.2 min. The same measure, in the same setting: for `CS(=O)CCCC(=NOS(=O)(=O)O)SC1OC(CO)C(O)C(O)C1O` (stereo not given) [Glucoiberin] the value was 4.44 min; for `COc1ccc(C=CC(=O)O)cc1` [4-methoxycinnamic acid], 48 min. Still for that read-out and setting: for `O=C(O)CNCc1ccccc1O` [salicylglycine] the value was 27.4 min; for `O=C(O)C1(O)CC(O)C(O)C(O)C1` (stereo not given) [Quinic acid], 3.21 min; for `O=C(O)CCc1ccccc1` [3-phenylpropionic acid], 44.5 min. Still for that read-out and setting: for `CC1OC(OCC2OC(Oc3c(-c4ccc(O)cc4)oc4cc(OC5OC(C)C(O)C(O)C5O)cc(O)c4c3=O)C(O)C(O)C2O)C(O)C(O)C1O` (stereo not given) [Robinin] the value was 31.8 min. `COc1ccccc1C(=O)O` [o-Anisic acid]: the LC retention time was 31.4 min. Regarding `O=C(O)CC(O)(CC(=O)O)C(=O)O` [Citric acid], the LC retention time was 6.32 min. Consider `O=C(O)c1cccnc1` [Niacin], for which the LC retention time was 5.51 min. Turning to `O=C(O)C(O)Cc1ccccc1` (stereo not given) [3-Phenyllactic acid], the LC retention time is 27.2 min. `COc1ccc(CC(=O)O)cc1OC` [homoveratric acid]: the LC retention time was 32.5 min.

Consider `C=CCC(=NOS(=O)(=O)O)SC1OC(CO)C(O)C(O)C1O` (stereo not given) [Sinigrin], for which the LC retention time was 5.52 min. On the same count and under the same terms, as for `CC(=O)OCC1OC(Oc2c(-c3ccc(O)c(O)c3)oc3cc(O)cc(O)c3c2=O)C(O)C(O)C1O` (stereo not given) [Quercetin-3-O-(6-acetylglucoside)], the figure is 38.8 min. Still for that read-out and setting: for `CC1OC(OCC2OC(Oc3c(-c4ccc(O)c(O)c4)oc4cc(OC5OC(CO)C(O)C(O)C5O)cc(O)c4c3=O)C(O)C(O)C2O)C(O)C(O)C1O` (stereo not given) [Quercetin 3-O-rutinoside-7-O-glucoside] the value was 20.6 min; for `O=c1c(OC2OC(CO)C(O)C(O)C2O)c(-c2ccc(O)cc2)oc2cc(O)cc(O)c12` [Kaempferol 3-O-D-galactoside], 37.2 min; for `COc1cc(CCC(=O)O)ccc1O` [Hydroferulic acid], 28.5 min. Regarding `CS(=O)CCCCC(=NOS(=O)(=O)O)SC1OC(CO)C(O)C(O)C1O` (stereo not given) [Glucoraphanin], the LC retention time was 6.23 min. Same read-out and setting: for `O=S(=O)(O)ON=C(CCc1ccccc1)SC1OC(CO)C(O)C(O)C1O` (stereo not given) [Gluconasturtiin] the value was 19.3 min; for `Nc1nc2ncc(CNc3ccc(C(=O)NC(CCC(=O)O)C(=O)O)cc3)nc2c(=O)[nH]1` (stereo not given) [Folic acid], 19 min; for `C=CCCC(=NOS(=O)(=O)O)SC1OC(CO)C(O)C(O)C1O` (stereo not given) [Gluconapin], 12.7 min. The same measure, in the same setting: for `O=c1[nH]c(=O)c2[nH]c(=O)[nH]c2[nH]1` [Uric acid] the value was 7.67 min.
